US9243062B2, “Peptides for treatment and diagnosis of autoimmune disease” (priority 2005, dated 2016)
No end group written: not given here.

What was measured:
human pancreatic α cells = assay: Fluorescence microscopy: binding of biotinylated homodimer CDR peptides to human pancreatic α cells; type: cell-based; conditions: biotinylated homodimers; fluoresceinated antibiotin as second step reagent
Protocol: (§1) An N terminal cysteine was added to each of the hypervariable region sequences (CDR-L1-3 and CDR-H1-3, SEQ ID NOs:6 to 16) which were synthesised by Fmoc peptide synthesis and dimerised to form homodimers. Some of each of the homodimers was biotinylated; the biotinylated homodimers were then tested by fluorescence microscopy for their ability to bind to human pancreatic a cells (used as an indicator human tissue) by using fluoresceinated antibiotin as a second step reagent. […] The non-biotinylated homodimer peptides were then tested by ELISAs for their ability to bind to anti-TCR Vβ antibody and to cardiolipin as an indicator of phospholipids (Table 1).

anti-TCR Vβ antibody = assay: ELISA binding to anti-TCR Vβ antibody; conditions: plate coated with homodimer peptide; for Optical density reading, ELISA, antigen α-TCRVβ antibody: tested against α-TCR Vβ, mean ± SD, three observations; for Ratio Test/Control: α-TCRVβ antibody vs PBS/culture medium control
Protocol: as §1

[1] = ELISA binding to cardiolipin as an indicator of phospholipids; conditions: for Ratio Test/Control: cardiolipin vs ethyl alcohol control; for Optical density reading, ELISA, antigen cardiolipin: plate coated with cardiolipin in ethyl alcohol, tested against antibody or homodimer peptide, mean ± SD, three observations
Protocol: as §1

[2] = Phase IIb randomised double blind trial in type 2 diabetics after stopping antidiabetic medication; type: in vivo, human
Protocol: 31 subjects (21 males and 10 females) with type 2 diabetes mellitus on one or more oral antidiabetic medication(s) were entered into a randomised double blind study of 16 weeks duration. At day 01 all antidiabetic medication was stopped. Patients were randomised to either the placebo group (group C) or one of 3 treatment groups described as Groups A, B or D. All groups received a total of 4 IM injections spaced one week apart starting from day 01. The placebo group (8 subjects) received 1.2 ml of saline containing 0.1% alhydrogel. Group A (7 subjects) received 1.51 mg of a peptide according to the invention (designated as NDX-71 herein) in 1.2 ml saline containing 0.1% alhydrogel. Group B (8 subjects) received 0.86 mg NDX-71 in 1.2 ml saline containing 0.1% alhydrogel. Group D (8 subjects) received a mixture of 3 peptides of the invention (0.92 mg NDX-71, 0.68 mg C80 and 0.71 mg F90) in 1.2 ml saline containing 0.1% alhydrogel. Placebo and study medications were visibly identical. The NDX-71 peptide used in this example was the B71 peptide used in Example 6. The C80 and F90 peptides used in this example were the C80 and F90 peptides used in Example 6.
At regular intervals throughout the study period patients underwent blood tests for clinical safety and glycaemic efficacy parameters. […] Clinical safety parameters in all groups were unchanged from baseline. There were no adverse events reported in the study attributable to the test substances.

NDX-71: homodimer of CDR-H2 derived monomer peptides, each SEQ ID NO:8 (NIYPSDSYTNYNQKFKD) plus an N terminal cysteine (SEQ ID NO:159) (chain 1 CNIYPSDSYTNYNQKFKD; chain 2 CNIYPSDSYTNYNQKFKD; cysteine pairing not given here; also: homodimer)
ability to bind to human pancreatic α cells (human pancreatic α cells): bound to the pancreatic α cells
Optical density reading, ELISA, antigen α-TCRVβ antibody (anti-TCR Vβ antibody): 0.307 ± 0.018
Ratio Test/Control (anti-TCR Vβ antibody): 1.83
Ratio Test/Control [1]: 2.40
Optical density reading, ELISA, antigen cardiolipin [1]: 0.151 ± 0.020
glycaemic control after cessation of antidiabetic medication ([2]; 1.51 mg dose): able to maintain good glycaemic control
dose dependence of effect ([2]; 1.51 mg vs 0.86 mg): dose response effect
HbA1c, treatment difference vs placebo (group C) ([2]; 21 male volunteers subset, high dose group A (1.51 mg), p<0.001): Statistically significant treatment differences
corrected fructosamine, treatment difference vs placebo (group C) ([2]; 21 male volunteers subset, high dose group A (1.51 mg), p=0.001): Statistically significant treatment differences
fasting glucose, treatment difference vs placebo (group C) ([2]; 21 male volunteers subset, high dose group A (1.51 mg), p=0.005): Statistically significant treatment differences
mean HbA1c level ([2]; baseline, high dose treatment group (1.51 mg NDX-71)): 6.3%
mean HbA1c level ([2]; day 113, high dose treatment group (1.51 mg NDX-71)): 6.9%
HbA1c levels over time vs placebo group ([2]; high dose treatment group (1.51 mg NDX-71), p=0.02): significantly different from the placebo group
glycaemic control compared with placebo ([2]; lower dose of 0.86 mg): showed improvement as compared with placebo

CDR-L3 (QQYNSYPLT; Protein Light chain HV3)
ability to bind to human pancreatic α cells (human pancreatic α cells): bound to the pancreatic α cells
Optical density reading, ELISA, antigen α-TCRVβ antibody (anti-TCR Vβ antibody): 0.243 ± 0.008
Ratio Test/Control (anti-TCR Vβ antibody): 1.74
Ratio Test/Control [1]: 2.23
Optical density reading, ELISA, antigen cardiolipin [1]: 0.254 ± 0.012

CDR-H3: homodimer of CDR-H3 derived monomer peptides, each SEQ ID NO:10 (LRGLLPDY) plus an N terminal cysteine (SEQ ID NO:160) (chain 1 CLRGLLPDY; chain 2 CLRGLLPDY; cysteine pairing not given here; also: homodimer)
ability to bind to human pancreatic α cells (human pancreatic α cells): bound to the pancreatic α cells
Optical density reading, ELISA, antigen α-TCRVβ antibody (anti-TCR Vβ antibody): 0.182 ± 0.009
Ratio Test/Control (anti-TCR Vβ antibody): 2.00
Ratio Test/Control [1]: 2.16
Optical density reading, ELISA, antigen cardiolipin [1]: 0.132 ± 0.009
